Experimental data as given in US20040110954A1, “Methods of synthesizing phenol-contining compounds” (priority 2003, published 2004).
Where two headings read alike, the source gives them in different places.

Experiments:
[1] = Glucuronidation in rat hepatic microsomes with UDPGA; conditions: rat hepatic microsomes ca. 0.5 mg/mL protein, 0.5 uM compound, UDPGA 4 mM, pH 7.4, 37° C.
Method: (§1) The standard procedure for these experiments is as follows: incubations were performed in a final volume of 1.0 mL in a heated block at approximately 37° C. Each incubation contained approximately 0.5 mg/mL microsomal protein and 0.5 uM of the compound. The incubations were conducted with 50 mM potassium phosphate buffer (pH 7.4) and, following a 5 min preincubation at 37° C., were initiated by the addition of cofactor (UDPGA, 4 mM). Aliquots were removed every three minutes and were quenched with two volumes of ACN/EtOH/Acetic acid (80:20:1) containing an appropriate internal standard. Samples were store frozen (ca.−70° C.) until analysis for the quantitation of the parent compound by LC/MS methods. The rate of disappearance of each compound was determined from relative concentration versus time profiles fitted to appropriate exponential decay equations. CLint (mL/min/g liver) was calculated using standard scaling factors.

[2] = Glucuronidation in human hepatic microsomes with UDPGA; conditions: human hepatic microsomes ca. 0.5 mg/mL protein, 0.5 uM compound, UDPGA 4 mM, pH 7.4, 37° C.
Method: as §1

[3] = In vivo half-life and clearance in the rat; conditions: male Sprague-Dawley rats; crossover: 60 min iv infusion, then oral gavage; plasma, noncompartmental analysis
Method: Method for Determining the in vivo Half-life (T½) of Compounds in Table 3. The study was conducted using a crossover design on two separate study days. Three male Sprague-Dawley rats received surgically implanted catheters in the vena cava (via the femoral vein), and in the femoral artery at least three days prior to the study. […] On study day two, the animals (fasted) received the compound by oral gavage (16.0 mL/kg). […] Blood samples were collected prior to dosing and at various times following administration of compounds. Plasma concentrations of the compounds were quantified by an HPLC/MS/MS method (LLQ=10 ng/mL). Noncompartmental analysis was used for pharmacokinetic analysis of plasma concentration versus time data.

[4] = microsomes, pH 7.4
Method: as §1

[5] = microsomes, pH 7.4; remark: listed apart in the source
Method: as §1

Row | Compound | Clint (mL/min/g liver) rat ([1]; Table 1 diphenylureas) [mL/min/g liver] | CLint (mL/min/g liver) human ([2]; Table 1 diphenylureas) [mL/min/g liver] | also measured
1 | CS(=O)(=O)c1c(C#N)ccc(NC(=O)Nc2ccccc2Br)c1O [Table 1 Entry 9, 1-(2-Bromo-phenyl)-3-(4-cyano-2-hydroxy-3-methanesulfonyl-phenyl)-urea] | <0.6 | <0.6 | 
2 | CN(C)S(=O)(=O)c1c(Cl)ccc(NC(=O)Nc2ccccc2Br)c1O [Table 1 Entry 4, N-(2-Bromophenyl)-N′[4-chloro-3-(N″,N″-dimethylaminosulfonyl)-2-hydroxyphenyl] urea] | <0.6 | <0.6 | Cl [3]: 72 mL/min/kg; Clint (mL/min/g liver) rat ([1]; Table 2 squaramide series): 5.1 mL/min/g liver; CLint (mL/min/g liver) human ([2]; Table 2 squaramide series): 28 mL/min/g liver
3 | O=C(Nc1ccc(Cl)c(C(=O)Nc2ccccc2)c1O)Nc1cccc(Cl)c1Cl [Table 1 Entry 18, 6-Chloro-3-[3-(2,3-dichloro-phenyl)-ureido]-2-hydroxy-N-phenyl-benzamide] | 9.3 | 11 | melting point: 244 to 245 °C
4 | CCC(C)c1c(C#N)ccc(NC(=O)Nc2ccccc2Br)c1O (stereo not shown) [Table 1 Entry 11, 1-(2-Bromo-phenyl)-3-[4-cyano-2-hydroxy-3-(1-methyl-propyl)-phenyl]-urea] |  | 2.8 | 
5 | O=C(Nc1ccc(Cl)c(C(=O)N2CCOCC2)c1O)Nc1cccc(Cl)c1Cl [Table 1 Entry 19, 1-[4-Chloro-2-hydroxy-3-(1-morpholin-4-yl-methanoyl)-phenyl]-3-(2,3-dichloro-phenyl)-urea] | 24 | 21 | 
6 | CCCc1c(C#N)ccc(NC(=O)Nc2ccccc2Br)c1O [Table 1 Entry 10, 1-(2-Bromo-phenyl)-3-(4-cyano-2-hydroxy-3-propyl-phenyl)-urea] |  | 11.3 | melting point: 174 to 175 °C
7 | CCCC(C)c1c(C#N)ccc(NC(=O)Nc2ccccc2Br)c1O (stereo not shown) [Table 1 Entry 12, 1-(2-Bromo-phenyl)-3-[4-cyano-2-hydroxy-3-(1-methyl-butyl)-phenyl]-urea] |  | 2.4 | 
8 | CNS(=O)(=O)c1c(Cl)ccc(NC(=O)Nc2cccc(Cl)c2Cl)c1O [Table 1 Entry 5, N-[4-chloro-2-hydroxy-3-(N″-methylaminosulfonyl)phenyl]-N′-(2,3-dichlorophenyl) urea] | <0.6 | <0.6 | Cl [3]: 26 mL/min/kg; T½ [3]: 5.4 min; Clint (mL/min/g liver) rat ([1]; Table 2 squaramide series): 6.7 mL/min/g liver; CLint (mL/min/g liver) human ([2]; Table 2 squaramide series): >50 mL/min/g liver
9 | CS(=O)(=O)c1c(Cl)ccc(NC(=O)Nc2cccc(Cl)c2Cl)c1O [Table 1 Entry 8, 1-(4Chloro-2-hydroxy-3-methanesulfonyl-phenyl)-3-(2,3-dichloro-phenyl)-urea] | <0.6 | <0.6 | 
10 | N-(4-chloro-2-hydroxy-3-aminosulfonylphenyl)-N′-(2,3-dichlorophenyl) urea sodium salt [Example 1] | <0.6 | <0.6 | Cl [3]: 4.6 mL/min/kg; T½ [3]: 636 min; Clint (mL/min/g liver) rat ([1]; Table 2 squaramide series): <0.6 mL/min/g liver; CLint (mL/min/g liver) human ([2]; Table 2 squaramide series): <0.6 mL/min/g liver
11 | NS(=O)(=O)Cc1c(Cl)ccc(NC(=O)Nc2cccc(Cl)c2Cl)c1O [Table 1 Entry 16, {6-Chloro-3-[3-(2,3-dichloro-phenyl)-ureido]-2-hydroxy-phenyl}-methanesulfonamide] | 1.3 | 11 | 
12 | COCCNS(=O)(=O)c1c(Cl)ccc(NC(=O)Nc2cccc(Cl)c2Cl)c1O [Table 1 Entry 7, N-[4-chloro-2-hydroxy-3-[N″-(2-methoxyethyl)sufonyl]phenyl]-N′-(2,3-dichlorophenyl) urea] | <0.6 | <0.6 | 
13 | NC(=O)c1c(Cl)ccc(NC(=O)Nc2ccccc2Br)c1O [Table 1 Entry 17, 3-[3-(2-Bromo-phenyl)-ureido]-6-chloro-2-hydroxy-benzamide] | 5.2 | 15.4 | 
14 | CC(C)Cc1c(C#N)ccc(NC(=O)Nc2ccccc2Br)c1O [Table 1 Entry 13, 1-(2-Bromo-phenyl)-3-(4-cyano-2-hydroxy-3-isobutyl-phenyl)-urea] |  | 7.6 | 
15 | N#Cc1ccc(NC(=O)Nc2ccccc2Br)c(O)c1Br [Table 1 Entry 14, 1-(3-Bromo-4-cyano-2-hydroxy-phenyl)-3-(2-bromo-phenyl)-urea] |  |  | Clint (mL/min/g liver) rat [4]: 27 mL/min/g liver; CLint (mL/min/g liver) human [5]: 3.7 mL/min/g liver
16 | C[S+]([O-])c1c(Cl)ccc(NC(=O)Nc2cccc(Cl)c2Cl)c1O (stereo not shown) [Table 1 Entry 15, 1-(4-Chloro-2-hydroxy-3-methanesulfinyl-phenyl)-3-(2,3-dichloro-phenyl)-urea] | 2.6 | 4.1 | 
17 | CN(C)S(=O)(=O)c1c(Cl)ccc(NC(=O)Nc2cccc(Cl)c2Cl)c1O [Table 1 Entry 3, N-[4-Chloro-3-(N″,N″-dimethylaminosulfonyl)-2-hydroxyphenyl]-N′-(2,3-dichlorophenyl) urea] | <0.6 | <0.6 | Cl [3]: 65 mL/min/kg; T½ [3]: 11.4 min; Clint (mL/min/g liver) rat ([1]; Table 2 squaramide series): 12 mL/min/g liver; CLint (mL/min/g liver) human ([2]; Table 2 squaramide series): 16 mL/min/g liver
18 | CNS(=O)(=O)c1c(Cl)ccc(NC(=O)Nc2ccccc2Br)c1O [Table 1 Entry 6, N′-(2-bromophenyl)-N′-[4-chloro-2-hydroxy-3-(N″-methylaminosulfonyl)phenyl] urea] |  |  | Clint (mL/min/g liver) rat [4]: <0.6 mL/min/g liver; CLint (mL/min/g liver) human [5]: <0.6 mL/min/g liver
